Measurements: PubChem BioAssay AID220 (DTP/NCI, 2004)
Several values for one entry are separate records, joined by “and”; a condition that tells them apart may be missing. Equal values may be shown once. Inconclusive results are not listed.

Test system: CD8F1 mice, subcutaneous mammary adenocarcinoma, T/C%
Assay: NCI In Vivo Anticancer Drug Screen. Data for tumor model Mammary Adenocarcinoma CD8F1 (subcutaneous) in CD8F1
Settings: higher = larger tumour
Method in brief: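 Compound-treated versus vehicle-treated mice with transplantable tumors; survival or tumor size compared as T/C.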

[1] = endpoint: median tumor weight change, dose: 12.5 mg/kg/injection, schedule: Q01DX001 (ip), vehicle: Klucel (hydroxypropylcellulose) (HPC)
[2] = endpoint: median tumor weight (est.), dose: 5.0 mg/kg/injection, schedule: Q07DX005 (ip), vehicle: Klucel (hydroxypropylcellulose) (HPC)
[3] = endpoint: median tumor weight (est.), dose: 20.0 mg/kg/injection, schedule: Q07DX005 (ip), vehicle: Klucel (hydroxypropylcellulose) (HPC)
[4] = endpoint: median tumor weight change, dose: 125.0 mg/kg/injection, schedule: Q01DX001 (ip), vehicle: saline

C(=N/NC1=NCCN1)/c1c2ccccc2c(/C=N\NC2=NCCN2)c2ccccc12
T/C (endpoint: median tumor weight change, dose: 25.0 mg/kg/injection, schedule: Q01DX001 (ip), vehicle: saline): 78 % of control
T/C (endpoint: median tumor weight change, dose: 50.0 mg/kg/injection, schedule: Q01DX001 (ip), vehicle: saline): 101 % of control
T/C (endpoint: median tumor weight change, dose: 100.0 mg/kg/injection, schedule: Q01DX001 (ip), vehicle: saline): 37 % of control

CCOC(C)C(/C=N/NC(N)=S)=NNC(N)=S (centres undefined)
T/C (endpoint: median tumor weight (est.), dose: 25.0 mg/kg/injection, schedule: Q07DX005 (ip), vehicle: saline with Tween-80): 87 % of control and 109 % of control
T/C (endpoint: median tumor weight (est.), dose: 50.0 mg/kg/injection, schedule: Q07DX005 (ip), vehicle: saline with Tween-80): 85 % of control and 88 % of control
T/C (endpoint: median tumor weight (est.), dose: 100.0 mg/kg/injection, schedule: Q07DX005 (ip), vehicle: saline with Tween-80): 78 % of control and 96 % of control

S=P(N1CC1)(N1CC1)N1CC1
T/C (endpoint: mean tumor weight, dose: 1.0 mg/kg/injection, schedule: Q01DX009 (ip), vehicle: saline): 45 % of control
T/C (endpoint: mean tumor weight, dose: 2.0 mg/kg/injection, schedule: Q01DX009 (ip), vehicle: saline): 7 % of control
T/C (endpoint: mean tumor weight, dose: 4.0 mg/kg/injection, schedule: Q07DX005 (ip), vehicle: saline): 354 % of control
T/C (endpoint: mean tumor weight, dose: 4.0 mg/kg/injection, schedule: Q07DX006 (ip), vehicle: saline): 20 % of control
T/C (endpoint: mean tumor weight, dose: 4.0 mg/kg/injection, schedule: Q07DX007 (ip), vehicle: saline): 1 % of control
T/C (endpoint: mean tumor weight, dose: 8.0 mg/kg/injection, schedule: Q07DX005 (ip), vehicle: saline): 597 % of control
T/C (endpoint: mean tumor weight, dose: 8.0 mg/kg/injection, schedule: Q07DX006 (ip), vehicle: saline): 3 % of control
T/C (endpoint: mean tumor weight, dose: 8.0 mg/kg/injection, schedule: Q07DX007 (ip), vehicle: saline): 6 % of control
T/C (endpoint: mean tumor weight, dose: 16.0 mg/kg/injection, schedule: Q07DX005 (ip), vehicle: saline): 61 % of control
T/C (endpoint: median tumor weight (est.), dose: 0.5 mg/kg/injection, schedule: Q07DX005 (ip), vehicle: saline): 96 % of control
T/C (endpoint: median tumor weight (est.), dose: 1.0 mg/kg/injection, schedule: Q07DX005 (ip), vehicle: saline): 157 % of control
T/C (endpoint: median tumor weight (est.), dose: 2.0 mg/kg/injection, schedule: Q07DX005 (ip), vehicle: saline): 159 % of control
T/C (endpoint: median tumor weight (est.), dose: 4.0 mg/kg/injection, schedule: Q07DX005 (ip), vehicle: saline): 42 % of control
T/C (endpoint: median tumor weight (est.), dose: 8.0 mg/kg/injection, schedule: Q07DX005 (ip), vehicle: saline): 15 % of control

C=C1C(=O)OCC1C(=O)O (centres undefined)
T/C (endpoint: median tumor weight change, dose: 15.62 mg/kg/injection, schedule: Q01DX001 (ip), vehicle: suspension in saline): 101 % of control
T/C (endpoint: median tumor weight change, dose: 62.5 mg/kg/injection, schedule: Q01DX001 (ip), vehicle: suspension in saline): 89 % of control
T/C (endpoint: median tumor weight change, dose: 125.0 mg/kg/injection, schedule: Q01DX001 (ip), vehicle: suspension in saline): 123 % of control

Cc1cc(NCCN(C(C)C)C(C)C)nc(/N=C(\N)Nc2ccc(Cl)c(C(F)(F)F)c2)n1
T/C [1]: 39 % of control and 45 % of control
T/C (endpoint: median tumor weight change, dose: 50.0 mg/kg/injection, schedule: Q01DX001 (ip), vehicle: Klucel (hydroxypropylcellulose) (HPC)): 27 % of control and 39 % of control
T/C (endpoint: median tumor weight change, dose: 100.0 mg/kg/injection, schedule: Q01DX001 (ip), vehicle: Klucel (hydroxypropylcellulose) (HPC)): 50 % of control and 74 % of control

C/C=C(\Cl)C1=CC(=O)C23CC2C2(C)COC1(O)C3(O)O2 (centres undefined)
T/C (endpoint: median tumor weight (est.), dose: 6.0 mg/kg/injection, schedule: Q07DX005 (ip), vehicle: saline with Tween-80): 90 % of control

c1ccc2c(NCCCCCCCCNc3c4ccccc4nc4ccccc34)c3ccccc3nc2c1
T/C [2]: 72 % of control
T/C (endpoint: median tumor weight (est.), dose: 10.0 mg/kg/injection, schedule: Q07DX005 (ip), vehicle: Klucel (hydroxypropylcellulose) (HPC)): 56 % of control
T/C [3]: 57 % of control
T/C (endpoint: median tumor weight (est.), dose: 40.0 mg/kg/injection, schedule: Q07DX005 (ip), vehicle: Klucel (hydroxypropylcellulose) (HPC)): 46 % of control

[O-][n+]1c(CN2CCCCC2)nc2cccc3c2c1-c1ccccc1-3
T/C (endpoint: median tumor weight change, dose: 125.0 mg/kg/injection, schedule: Q01DX001 (ip), vehicle: saline with Tween-80): 78 % of control
T/C (endpoint: median tumor weight change, dose: 250.0 mg/kg/injection, schedule: Q01DX001 (ip), vehicle: saline with Tween-80): 104 % of control
T/C (endpoint: median tumor weight change, dose: 500.0 mg/kg/injection, schedule: Q01DX001 (ip), vehicle: saline with Tween-80): 84 % of control

C[n+]1c(-c2cccc3ccccc23)c2cc(N)ccc2c2ccccc21
T/C (endpoint: median tumor weight (est.), dose: 3.12 mg/kg/injection, schedule: Q07DX005 (ip), vehicle: saline): 71 % of control
T/C (endpoint: median tumor weight (est.), dose: 6.25 mg/kg/injection, schedule: Q07DX005 (ip), vehicle: saline): 99 % of control
T/C (endpoint: median tumor weight (est.), dose: 12.5 mg/kg/injection, schedule: Q07DX005 (ip), vehicle: saline): 49 % of control

CC(=O)OCC1OC([S-])C(OC(C)=O)C(OC(C)=O)C1OC(C)=O.CC[PH+](CC)CC.CC[PH+](CC)CC.[Au].[Au] (centres undefined)
T/C (endpoint: median tumor weight change, dose: 6.25 mg/kg/injection, schedule: Q01DX001 (ip), vehicle: Klucel (hydroxypropylcellulose) (HPC)): 63 % of control
T/C [1]: 109 % of control

c1ccc2c(NCCCCCCNc3c4ccccc4nc4ccccc34)c3ccccc3nc2c1
T/C (endpoint: median tumor weight (est.), dose: 1.25 mg/kg/injection, schedule: Q07DX005 (ip), vehicle: Klucel (hydroxypropylcellulose) (HPC)): 97 % of control
T/C (endpoint: median tumor weight (est.), dose: 2.5 mg/kg/injection, schedule: Q07DX005 (ip), vehicle: Klucel (hydroxypropylcellulose) (HPC)): 95 % of control
T/C [2]: 58 % of control
T/C [3]: 47 % of control

CC(C)(C)N1CC1CNC(=O)C(=O)NCC1CN1C(C)(C)C (centres undefined)
T/C (endpoint: median tumor weight change, dose: 15.6 mg/kg/injection, schedule: Q01DX001 (ip), vehicle: saline with Tween-80): 50 % of control
T/C (endpoint: median tumor weight change, dose: 15.62 mg/kg/injection, schedule: Q01DX001 (ip), vehicle: saline with Tween-80): 30 % of control
T/C (endpoint: median tumor weight change, dose: 31.25 mg/kg/injection, schedule: Q01DX001 (ip), vehicle: saline with Tween-80): 30 % of control and 37 % of control

CC(=O)NNC(=O)c1ccccn1
T/C (endpoint: mean tumor weight, dose: 25.0 mg/kg/injection, schedule: Q01DX009 (ip), vehicle: saline): 28 % of control
T/C (endpoint: mean tumor weight, dose: 50.0 mg/kg/injection, schedule: Q07DX004 (ip), vehicle: saline): 112 % of control
T/C (endpoint: mean tumor weight, dose: 100.0 mg/kg/injection, schedule: Q01DX009 (ip), vehicle: saline): 32 % of control
T/C (endpoint: mean tumor weight, dose: 100.0 mg/kg/injection, schedule: Q07DX004 (ip), vehicle: saline): 74 % of control
T/C (endpoint: mean tumor weight, dose: 100.0 mg/kg/injection, schedule: Q07DX005 (ip), vehicle: saline): 99 % of control
T/C (endpoint: mean tumor weight, dose: 200.0 mg/kg/injection, schedule: Q07DX004 (ip), vehicle: saline): 56 % of control
T/C (endpoint: mean tumor weight, dose: 200.0 mg/kg/injection, schedule: Q07DX005 (ip), vehicle: saline): 82 % of control

NNC(=O)c1ccncc1
T/C (endpoint: median tumor weight change, dose: 62.0 mg/kg/injection, schedule: Q01DX001 (ip), vehicle: saline): 78 % of control
T/C [4]: 70 % of control

O=C(CCl)NC(Cc1ccc(N(CCCl)CCCl)cc1)C(=O)O (centres undefined)
T/C (endpoint: median tumor weight (est.), dose: 2.0 mg/kg/injection, schedule: Q01DX001 (ip), vehicle: Klucel (hydroxypropylcellulose) (HPC)): 93 % of control
T/C (endpoint: median tumor weight (est.), dose: 4.0 mg/kg/injection, schedule: Q01DX001 (ip), vehicle: Klucel (hydroxypropylcellulose) (HPC)): 54 % of control
T/C (endpoint: median tumor weight (est.), dose: 8.0 mg/kg/injection, schedule: Q01DX001 (ip), vehicle: Klucel (hydroxypropylcellulose) (HPC)): 75 % of control and 82 % of control
T/C (endpoint: median tumor weight (est.), dose: 16.0 mg/kg/injection, schedule: Q01DX001 (ip), vehicle: Klucel (hydroxypropylcellulose) (HPC)): 48 % of control and 60 % of control
T/C (endpoint: median tumor weight (est.), dose: 32.0 mg/kg/injection, schedule: Q01DX001 (ip), vehicle: Klucel (hydroxypropylcellulose) (HPC)): 60 % of control and 62 % of control
T/C (endpoint: median tumor weight (est.), dose: 64.0 mg/kg/injection, schedule: Q01DX001 (ip), vehicle: Klucel (hydroxypropylcellulose) (HPC)): 19 % of control and 43 % of control

O=C1OC(=O)[C@H]2[C@@H]1[C@H]1C=C[C@@H]2OC1=O
T/C [4]: 154 % of control
T/C (endpoint: median tumor weight change, dose: 250.0 mg/kg/injection, schedule: Q01DX001 (ip), vehicle: saline): 98 % of control
T/C (endpoint: median tumor weight change, dose: 500.0 mg/kg/injection, schedule: Q01DX001 (ip), vehicle: saline): 91 % of control
T/C (endpoint: median tumor weight change, dose: 1000.0 mg/kg/injection, schedule: Q01DX001 (ip), vehicle: saline): 95 % of control
T/C (endpoint: median tumor weight change, dose: 2000.0 mg/kg/injection, schedule: Q01DX001 (ip), vehicle: saline): 40 % of control

Oc1c(Cl)cc(Cl)cc1C=NCCSc1ccc(Cl)cc1
T/C (endpoint: median tumor weight change, dose: 62.5 mg/kg/injection, schedule: Q01DX001 (ip), vehicle: Klucel (hydroxypropylcellulose) (HPC)): 99 % of control and 100 % of control
T/C (endpoint: median tumor weight change, dose: 125.0 mg/kg/injection, schedule: Q01DX001 (ip), vehicle: Klucel (hydroxypropylcellulose) (HPC)): 89 % of control and 104 % of control
T/C (endpoint: median tumor weight change, dose: 250.0 mg/kg/injection, schedule: Q01DX001 (ip), vehicle: Klucel (hydroxypropylcellulose) (HPC)): 87 % of control and 103 % of control
